The test system of one assay is SMN complex. Kind of assay: high-throughput 384-well SMN complex activity / snRNP assembly assay. Type of assay: biochemical. The following applies: test compound added to labeled RNA, cell extract and ATP; identified inhibitors, FIG. 10.
For assay [1], the system named is Sm core assembly on U4 snRNA in HeLa cytoplasmic extracts. In words: magnetic beads assay for in vitro assembly of snRNPs (Sm core assembly). Type of assay: biochemical. The following applies: cell extracts, AMP-PNP in place of ATP, FIG. 3A. As for the experimental part:
For quantitative in vitro assembly assays on magnetic beads, cytoplasmic extracts were prepared and used for assembly on biotin-labeled snRNAs using the standard reconstitution conditions in 96-well plates. Following the reactions, Y12 antibodies immobilized onto the magnetizable Dynabeads Protein A (Dynal Biotech ASA, Oslo, Norway) in 100 μl of RSB-500 buffer (10 mM Tris/HCl pH 7.5, 500 mM NaCl, 2.5 mM MgCl2) containing 2 mg/ml heparin, 0.1% NP-40, and 0.2 U/μl RNasin Plus RNase inhibitor (Promega, Madison, Wis.) were added to each well. Immunoprecipitations in the 96-well plates were carried out with gentle mixing at 750 rpm in a Thermomixer (Eppendorf, Germany) at 30° C. for 1 hour. The plates were subsequently transferred to a Kingfisher 96 magnetic particle processor (Thermo Labsystems, Vantaa, Finland) for automatic washing of the Dynabeads in each well with wash buffer (RSB-500, 0.1% NP-40) 5 times. […] The plates were transferred to a Wallac Victor2 multi-label plate reader (Perkin-Elmer, Wellesley, Mass.) for luminescence measurements at 495 nm. The resulting data were analyzed with Microsoft Excel.
To facilitate the study of the snRNP assembly process, an assay that allows a quantitative measurement of Sm core formation was developed (FIG. 2). […] This step also serves to amplify the signals for the luminescence measurement of the HRP activity on an automatic plate reader. […]

SMILES strings stand for the structures. “Also recorded” adds a separate entry of the source.

From the text for SMN complex: The present assay comprises labeling an RNA, in the case of an assay to measure Sm core activity, the RNA is snRNA. The RNA is preferably labeled with a non-radioactive tag, such as biotin-UTP. […] The labeled RNA binds the plate through the interaction between biotin and avidin/streptavidin. The RNA binding proteins present in the cell extract bind their RNA target at sequence specific sites, forming a ribonucleoprotein complex in the multi-well plate substrate. The ribonucleoprotein complex is captured on the plate and the plate is washed one or more times. An anti RNA binding protein antibody is then added to the plate. The plate is again washed one or more times and an labeled antibody, such as an HRP labeled antibody, is added to the multi-well plate substrate. The plate is washed one or more times, and HRP substrate is added. Chemiluminescence generated by HRP is detected using a plate reader.
Five microliters of test compound dissolved in DMSO were added to each well of the plate. Five microliters of HeLa whole cell extract containing 8 μg of total protein was added to each well. The plate was centrifuged (5 minutes at 1000 rpm), and the assembly reactions were allowed to proceed for 1 hour at room temperature. The reaction mixtures were aspirated and 20 μl/well of Y12 antibody (diluted 1:1000 in RSB-500 (10 mM Tris/HCl, pH 7.5, 500 mM NaCl, 2.5 mM MgCl2, and 0.1% Nonidet P-40 (NP-40)) containing 1 mg/ml BSA, 2 mg/ml heparin, and 1× Complete EDTA-free Protease Inhibitor Cocktail) was added. The plate was centrifuged for 5 minutes at 1000 rpm, and incubated for 1 hour at room temperature.
The plate was washed 10× with RSB-500 using an automated plate washer, followed by the addition of 20 ml/well of horseradish peroxidase-conjugated AffiniPure goat anti-mouse IgG+IgM (diluted 1:10,000 in RSB-500 containing 1 mg/ml BSA) for 1 hour at room temperature. The plate was centrifuged for 5 minutes at 1000 rpm. The plate was then washed 10× using an automated washer and 20 μl of SuperSignal ELISA Femto Maximum Sensitivity enhanced chemiluminescence substrate working solution was added into each well. The plate was then centrifuged for 5 minutes at 1000 rpm. The luminescence signal was measured using a plate Reader.
The assay of the present invention can also be used to determine the dose response activity of a compound on an RNA binding protein-RNA complex.

Regarding `O=C1C(SCCO)=C(SCCO)C(=O)c2ccccc21` [2,3-bis[(2-Hydroxyehtyl)thio]-1,4-naphthoquinone], the “formation of an RNA binding protein-RNA complex” value in the assay with SMN complex is “inhibits the formation of an RNA binding protein-RNA complex”.
As for `Nc1ncnc2c1ncn2[C@@H]1O[C@H](COP(=O)(O)OP(=O)(O)NP(=O)(O)O)[C@@H](O)[C@H]1O` [AMP-PNP, adenosine 5′-(β,γ-imido)triphosphate], the “Sm core assembly (snRNP complex formation)” value in assay [1] is “does not permit the formation; also recorded: does not occur”.
In the case of `CC1(C)CCC2=C(O1)c1ccccc1C(=O)C2=O` [beta-lapachone], in the assay on SMN complex, the “formation of an RNA binding protein-RNA complex” value is on record as “inhibits the formation of an RNA binding protein-RNA complex”.
Same read-out and setting: in the case of `Oc1c(Cl)cc(Cl)cc1Sc1cc(Cl)cc(Cl)c1O` [bithionol] it was “inhibits the formation of an RNA binding protein-RNA complex”; in that of `Oc1c(Cl)cc(Cl)c(Cl)c1Cc1c(O)c(Cl)cc(Cl)c1Cl` [hexachlorophene], “inhibits the formation of an RNA binding protein-RNA complex”.

These data come from patent US8822168B2, “Assays for detecting small nuclear ribonucleoprotein particle assembly and survival of motor neurons activity” (The Trustees of the University of Pennsylvania, priority 2005, dated 2014).
